# Tests used:
# human GLUT1 = target: T1, human GLUT1 (Homo sapiens, UniProt P11166); assay: [3H]-deoxy-D-glucose uptake assay, GLUT1; format: cell-based; conditions: [3H]-deoxy-D-glucose uptake in HEK293 cells stably expressing human GLUT1
# T1 construct: expressed in transfected cells
# T1 sequence (P11166 1-492): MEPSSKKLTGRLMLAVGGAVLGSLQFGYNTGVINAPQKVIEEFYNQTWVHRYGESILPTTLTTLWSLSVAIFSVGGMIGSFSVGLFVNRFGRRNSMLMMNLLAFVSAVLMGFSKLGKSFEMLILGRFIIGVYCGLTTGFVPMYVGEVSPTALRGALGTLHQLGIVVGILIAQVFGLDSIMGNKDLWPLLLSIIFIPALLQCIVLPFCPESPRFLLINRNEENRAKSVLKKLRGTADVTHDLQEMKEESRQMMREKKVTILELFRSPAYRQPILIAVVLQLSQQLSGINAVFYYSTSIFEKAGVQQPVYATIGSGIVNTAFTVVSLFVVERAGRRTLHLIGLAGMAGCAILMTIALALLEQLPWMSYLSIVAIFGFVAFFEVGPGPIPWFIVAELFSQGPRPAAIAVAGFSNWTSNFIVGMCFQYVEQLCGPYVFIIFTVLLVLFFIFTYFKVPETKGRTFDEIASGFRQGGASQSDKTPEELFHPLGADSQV
# Method in brief: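 HEK293 cells stably overexpressing human GLUT1 or GLUT2, seeded at 60,000 per well, treated with compounds in glucose-free uptake buffer for 30 min at 37 °C. [3H]-deoxy-D-glucose uptake quantified by scintillation counting after ice-cold PBS washes; IC50 determined.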
# human GLUT2 = target: T2, human GLUT2 (Homo sapiens, UniProt P11168); assay: [3H]-deoxy-D-glucose uptake assay, GLUT2; format: cell-based; conditions: [3H]-deoxy-D-glucose uptake in HEK293 cells stably expressing human GLUT2
# T2 construct: expressed in transfected cells
# T2 sequence (P11168 1-524): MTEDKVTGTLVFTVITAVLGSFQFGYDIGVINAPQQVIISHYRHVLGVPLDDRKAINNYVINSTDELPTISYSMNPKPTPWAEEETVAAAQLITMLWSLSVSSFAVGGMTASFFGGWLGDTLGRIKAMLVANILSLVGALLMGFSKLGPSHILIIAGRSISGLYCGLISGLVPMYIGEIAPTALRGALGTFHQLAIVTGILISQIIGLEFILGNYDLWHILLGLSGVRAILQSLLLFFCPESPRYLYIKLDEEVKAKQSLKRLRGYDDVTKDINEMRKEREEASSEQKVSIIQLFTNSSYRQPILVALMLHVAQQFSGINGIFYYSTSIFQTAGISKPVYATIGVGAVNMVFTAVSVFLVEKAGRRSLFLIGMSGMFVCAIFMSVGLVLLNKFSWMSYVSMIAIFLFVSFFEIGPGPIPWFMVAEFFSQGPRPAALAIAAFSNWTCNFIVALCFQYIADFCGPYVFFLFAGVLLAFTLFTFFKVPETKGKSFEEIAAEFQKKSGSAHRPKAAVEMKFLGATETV
# Experimental: HEK293 cells were engineered to stably express either human GLUT1, GLUT2, GLUt3 or GLUT4 by transfection with the pReceiver-Lv105 plasmid, containing either hGLUT1, hGLUT2, hGLUT3, or hGLUT4 gene constructs with lipofectamine 2000, hGLUT1- hGLUT2- hGLUT3- or hGLUT4-overexpressing polyclonal populations were isolated under purinomycin selective pressure (1 μg/ml) and maintained in Dulbecco's modified Eagle's medium supplemented with 1 μg/ml purinomycin+10% foetal bovine serum (FBS).
# 60,000 cells per well were seeded overnight into poly-D-lysine coasted 96-well plates. […] 90 μl of test compounds were added in glucose-free uptake buffer and cells were incubated at 37° C. for 30 min.
# Cells were then washed twice with ice-cold PBS and 100 μl of Microscint-20 was added per well. Glucose uptake was quantified with a scintillation counter. The half maximal inhibitory concentration (IC50) (a measure of the effectiveness of the test compound in inhibiting glucose uptake) was determined.
Compound,GLUT1 pIC50 (human GLUT1),GLUT2 pIC50 (human GLUT2)
N#Cc1ccccc1-c1ccc2nc(-c3ccc(Cl)cc3)c(CN3CCOCC3)n2c1 [Compound 91],+++ (pIC50 ≧ 6.00),+++ (pIC50 ≧ 6.00)
COc1ccc(C(=O)N2CCN(Cc3c(-c4ccc(Cl)cc4)nc4ccc(-c5ccccc5)cn34)CC2)cc1 [Compound 126],+++ (pIC50 ≧ 6.00),+++ (pIC50 ≧ 6.00)
O=C(Nc1cccc(F)c1)N1CCN(Cc2c(-c3ccc(Cl)cc3)nc3ccc(-c4ccccc4)cn23)CC1 [Compound 127],+− (pIC50 < 4.00),+− (pIC50 < 4.00)
O=C(C1COC1)N1CCN(Cc2c(-c3ccc(Cl)cc3)nc3ccc(-c4ccccc4)cn23)CC1 [Compound 171],+++ (pIC50 ≧ 6.00),+++ (pIC50 ≧ 6.00)
CC(C)c1cn2c(CN3CCOCC3)c(-c3ccc(Cl)cc3)nc2cn1 [Compound 217],+++ (pIC50 ≧ 6.00),+++ (pIC50 ≧ 6.00)
CC(=O)N1CCN(Cc2c(-c3ccc(Cl)cc3)nc3cnc(-c4ccccc4C#N)cn23)CC1 [Compound 224],+++ (pIC50 ≧ 6.00),+++ (pIC50 ≧ 6.00)
O=C1CCN(Cc2c(-c3ccc(Cl)cc3)nc3ccc(-c4ccccc4)cn23)CCN1 [Compound 227],+++ (pIC50 ≧ 6.00),+++ (pIC50 ≧ 6.00)
CN1CCN(Cc2c(-c3ccc(Cl)cc3)nc3ccc(-c4ccccc4)cn23)CCC1=O [Compound 232],+++ (pIC50 ≧ 6.00),+++ (pIC50 ≧ 6.00)
N#Cc1cccc(F)c1-c1ccc2nc(-c3ccc(Cl)cc3)c(CN3CCOCC3)n2c1 [Compound 236],+++ (pIC50 ≧ 6.00),+++ (pIC50 ≧ 6.00)
N#Cc1ccccc1-c1ccc2nc(-c3ccc(Cl)cc3)c(CN3CCNC(=O)C3)n2c1 [Compound 239],+++ (pIC50 ≧ 6.00),
Clc1ccc(-c2nc3ccc(C4CCCC4)cn3c2CN2CCOCC2)cc1 [Compound 240],++ (pIC50 5.00-5.99),
Clc1ccc(-c2nc3ccc(-c4ncccn4)cn3c2CN2CCOCC2)cc1 [Compound 241],++ (pIC50 5.00-5.99),
Cn1cc(C(=O)N2CCN(Cc3c(-c4ccc(Cl)cc4)nc4ccc(-c5ccccc5)cn34)CC2)cn1 [Compound 243],+++ (pIC50 ≧ 6.00),
O=C(c1cc[nH]c(=O)c1)N1CCN(Cc2c(-c3ccc(Cl)cc3)nc3ccc(-c4ccccc4)cn23)CC1 [Compound 244],+++ (pIC50 ≧ 6.00),
OC(c1c(-c2ccc(Cl)cc2)nc2ccc(-c3ccccc3)cn12)C1CCCN1 (stereo not drawn) [Compound 245],+− (pIC50 < 4.00),
Cn1ccnc1C(=O)N1CCN(Cc2c(-c3ccc(Cl)cc3)nc3ccc(-c4ccccc4)cn23)CC1 [Compound 246],++ (pIC50 5.00-5.99),
CN1CCN(Cc2c(-c3ccc(Cl)cc3)nc3ccc(-c4ccccc4C#N)cn23)CC1=O [Compound 247],+++ (pIC50 ≧ 6.00),+++ (pIC50 ≧ 6.00)
CN1CCN(Cc2c(-c3ccc(Cl)cc3)nc3ccc(-c4ccccc4)cn23)CC1=O [Compound 248],++ (pIC50 5.00-5.99),
Fc1cc(Cl)ccc1-c1nc2ccc(-c3ccccc3)cn2c1CN1CCOCC1 [Compound 249],++ (pIC50 5.00-5.99),
O=C(c1cn[nH]c1)N1CCN(Cc2c(-c3ccc(Cl)cc3)nc3ccc(-c4ccccc4)cn23)CC1 [Compound 250],+++ (pIC50 ≧ 6.00),
Fc1cccnc1-c1ccc2nc(-c3ccc(Cl)cc3)c(CN3CCOCC3)n2c1 [Compound 251],++ (pIC50 5.00-5.99),
CCC(=O)N1CCN(Cc2c(-c3ccc(Cl)cc3)nc3cnc(C4CC4)cn23)CC1 [Compound 253],+++ (pIC50 ≧ 6.00),+++ (pIC50 ≧ 6.00)
O=C(c1cnccn1)N1CCN(Cc2c(-c3ccc(Cl)cc3)nc3cnc(C4CC4)cn23)CC1 [Compound 255],+++ (pIC50 ≧ 6.00),
O=C(C1CCOCC1)N1CCN(Cc2c(-c3ccc(Cl)cc3)nc3cnc(C4CC4)cn23)CC1 [Compound 256],+++ (pIC50 ≧ 6.00),

Compound,GLUT1 pIC50 (human GLUT1),GLUT2 pIC50 (human GLUT2)
CC(=O)N1CCN(Cc2c(-c3ccc(Cl)cc3)nc3ccc(NS(C)(=O)=O)cn23)CC1 [Compound 259],+++ (pIC50 ≧ 6.00),++ (pIC50 5.00-5.99)
COCC(=O)N1CCN(Cc2c(-c3ccc(Cl)cc3)nc3ccc(NS(C)(=O)=O)cn23)CC1 [Compound 260],+++ (pIC50 ≧ 6.00),
O=C(c1cnccn1)N1CCN(Cc2c(-c3ccc(Cl)cc3)nc3ccc(C4CC4)cn23)CC1 [Compound 263],+++ (pIC50 ≧ 6.00),
O=C(c1nccs1)N1CCN(Cc2c(-c3ccc(Cl)cc3)nc3ccc(-c4ccccc4)cn23)CC1 [Compound 266],+++ (pIC50 ≧ 6.00),
O=C(c1cscn1)N1CCN(Cc2c(-c3ccc(Cl)cc3)nc3cnc(C4CC4)cn23)CC1 [Compound 267],+++ (pIC50 ≧ 6.00),
O=C(c1ccnnc1)N1CCN(Cc2c(-c3ccc(Cl)cc3)nc3cnc(C4CC4)cn23)CC1 [Compound 268],+++ (pIC50 ≧ 6.00),
CC(=O)N1CCN(Cc2c(-c3ccc(Cl)cc3)nc3ccc(-c4ncon4)cn23)CC1 [Compound 270],+++ (pIC50 ≧ 6.00),
O=C(C1COC1)N1CCN(Cc2c(-c3ccc(Cl)cc3)nc3cnc(C4CC4)cn23)CC1 [Compound 274],+++ (pIC50 ≧ 6.00),
COCC(=O)N1CCN(Cc2c(-c3ccc(Cl)cc3)nc3ccc([N+](=O)[O-])cn23)CC1 [Compound 275],++ (pIC50 5.00-5.99),
CC(=O)N1CCN(Cc2c(-c3ccc(Cl)cc3)nc3ccc(N)cn23)CC1 [Compound 276],+− (pIC50 < 4.00),
O=C(CO)N1CCN(Cc2c(-c3ccc(Cl)cc3)nc3ccc(-c4ccccc4)cn23)CC1 [Compound 277],+++ (pIC50 ≧ 6.00),
CS(=O)(=O)Nc1ccc2nc(-c3ccc(Cl)cc3)c(CN3CCN(C(=O)c4cscn4)CC3)n2c1 [Compound 279],+++ (pIC50 ≧ 6.00),
COCC(=O)N1CCN(Cc2c(-c3ccc(Cl)cc3)nc3ccc(N)cn23)CC1 [Compound 280],+− (pIC50 < 4.00),
O=C(c1ccncc1)N1CCN(Cc2c(-c3ccc(Cl)cc3)nc3ccc(-c4ncon4)cn23)CC1 [Compound 281],+++ (pIC50 ≧ 6.00),
O=C(c1c(-c2ccc(Cl)cc2)nc2ccc(-c3ccccc3)cn12)N1CCOCC1 [Compound 282],+− (pIC50 < 4.00),
CN1CCN(C(=O)c2c(-c3ccc(Cl)cc3)nc3ccc(-c4ccccc4)cn23)CC1 [Compound 283],+− (pIC50 < 4.00),
COCC(=O)N1CCN(Cc2c(-c3ccc(Cl)cc3)nc3ccc(-c4ncon4)cn23)CC1 [Compound 284],+++ (pIC50 ≧ 6.00),
O=C(C1COC1)N1CCN(Cc2c(-c3ccc(Cl)cc3)nc3ccc(-c4ncon4)cn23)CC1 [Compound 285],+++ (pIC50 ≧ 6.00),
CS(=O)(=O)Nc1ccc2nc(-c3ccc(Cl)cc3)c(CN3CCN(C(=O)C4COC4)CC3)n2c1 [Compound 286],+++ (pIC50 ≧ 6.00),
Clc1ccc(-c2nc3ccc(-c4nccs4)cn3c2CN2CCOCC2)cc1 [Compound 287],+++ (pIC50 ≧ 6.00),
O=C1CN(Cc2c(-c3ccc(Cl)cc3)nc3cnc(C4CC4)cn23)CCN1 [Compound 288],+++ (pIC50 ≧ 6.00),
CS(=O)(=O)Nc1ccc2nc(-c3ccc(Cl)cc3)c(CN3CCNC(=O)C3)n2c1 [Compound 289],+++ (pIC50 ≧ 6.00),
CC(C)(C)OC(=O)N1CCN(C(=O)c2c(-c3ccc(Cl)cc3)nc3ccc(-c4ccccc4)cn23)CC1 [Compound 290],+− (pIC50 < 4.00),
O=C(c1c(-c2ccc(Cl)cc2)nc2ccc(-c3ccccc3)cn12)N1CCNCC1 [Compound 291],+− (pIC50 < 4.00),
